Measured values reported in paper PMC6348771 (Redox Biology, 2018).

Biological target: T1, glutathione reductase (GR) (Saccharomyces cerevisiae, UniProt P41921)
T1 sequence (P41921 1-483): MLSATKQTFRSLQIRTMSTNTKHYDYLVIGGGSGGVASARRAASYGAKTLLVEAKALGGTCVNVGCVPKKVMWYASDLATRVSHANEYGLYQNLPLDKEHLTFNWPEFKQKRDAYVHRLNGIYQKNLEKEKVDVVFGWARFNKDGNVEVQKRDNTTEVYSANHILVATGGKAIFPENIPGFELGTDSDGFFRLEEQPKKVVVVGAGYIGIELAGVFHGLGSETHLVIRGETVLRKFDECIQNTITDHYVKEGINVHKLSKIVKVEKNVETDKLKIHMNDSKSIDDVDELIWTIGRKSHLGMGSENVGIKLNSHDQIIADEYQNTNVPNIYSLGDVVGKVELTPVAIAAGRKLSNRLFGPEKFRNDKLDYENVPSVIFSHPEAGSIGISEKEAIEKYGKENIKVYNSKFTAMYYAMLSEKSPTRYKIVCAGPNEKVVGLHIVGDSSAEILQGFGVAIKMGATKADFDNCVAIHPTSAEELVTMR
Assay: enzyme activity assay versus GSH concentration
Format: biochemical

N[C@@H](CCC(=O)N[C@@H](CS)C(=O)NCC(=O)O)C(=O)O [GSH, Glutathione]
IC50: ~10 mM
